Measured values taken from patent US12691092B2, “Method for reducing cutaneous skin scarring by pre-emptive priming and compounds and compositions for its implementation” (SOS SCIENCE OF SKIN LTD, priority 2020, dated 2026).

Experiments:
MCT and MCC = assay: QRT-PCR of MCT and MCC in scar biopsies; assay type: in vivo, human; settings: week 4, all groups, p<0.05
Procedure: A double-blind randomized placebo-controlled trial was conducted using a temporal punch-biopsy model. The punch biopsy and topical application methodology used in the study is illustrated in FIG. 1, namely showing pre-injury pre-emptive priming (7-days), pre-injury pre-emptive priming (3-days), day of injury (immediate application on day 0), post-injury (delayed 2 weeks post injury) including biopsy time points and time of topical applications. Each group applied both placebo and topical formulations twice daily for the duration of the study until week 8, with only the starting time point differing between groups Participants were split into 4 groups (n=10 in each group) in order to compare different modes (timings) of commencement of the topical application: • Group-1: Pre-emptive Priming (7-days): pre-injury • Group-2: Pre-emptive Priming (3-days): pre-injury • Group-3: Immediate (0-day): day-of-injury • Group-4: Delayed (14-days): post-injury Clinical quantitative devices were used to objectively monitor cutaneous healing at weekly intervals and punch biopsies were performed on day 0 (uninjured skin) and at weeks 4 and 8 for protein and gene expression analyses. […] Excisional skin biopsies in upper arms were evaluated weekly with multiple quantitative devices over an 8-week period. […] MCT, MCC and CKit quantitative measurements are expressed in mm^2.

langerin = assay: Langerin immunohistochemical marker in scar biopsies; assay type: in vivo, human; settings: week 4, group-1 only (7-day pre-injury priming), p=0.02
Procedure: A double-blind randomized placebo-controlled trial was conducted using a temporal punch-biopsy model. The punch biopsy and topical application methodology used in the study is illustrated in FIG. 1, namely showing pre-injury pre-emptive priming (7-days), pre-injury pre-emptive priming (3-days), day of injury (immediate application on day 0), post-injury (delayed 2 weeks post injury) including biopsy time points and time of topical applications. Each group applied both placebo and topical formulations twice daily for the duration of the study until week 8, with only the starting time point differing between groups Participants were split into 4 groups (n=10 in each group) in order to compare different modes (timings) of commencement of the topical application: • Group-1: Pre-emptive Priming (7-days): pre-injury • Group-2: Pre-emptive Priming (3-days): pre-injury • Group-3: Immediate (0-day): day-of-injury • Group-4: Delayed (14-days): post-injury Clinical quantitative devices were used to objectively monitor cutaneous healing at weekly intervals and punch biopsies were performed on day 0 (uninjured skin) and at weeks 4 and 8 for protein and gene expression analyses. […] Excisional skin biopsies in upper arms were evaluated weekly with multiple quantitative devices over an 8-week period. […]

[1] = test system: human skin scarring model; assay: Viscoelasticity of scars by clinical elastin probe; assay type: in vivo
Procedure: A double-blind randomized placebo-controlled trial was conducted using a temporal punch-biopsy model. The punch biopsy and topical application methodology used in the study is illustrated in FIG. 1, namely showing pre-injury pre-emptive priming (7-days), pre-injury pre-emptive priming (3-days), day of injury (immediate application on day 0), post-injury (delayed 2 weeks post injury) including biopsy time points and time of topical applications. Each group applied both placebo and topical formulations twice daily for the duration of the study until week 8, with only the starting time point differing between groups Participants were split into 4 groups (n=10 in each group) in order to compare different modes (timings) of commencement of the topical application: • Group-1: Pre-emptive Priming (7-days): pre-injury • Group-2: Pre-emptive Priming (3-days): pre-injury • Group-3: Immediate (0-day): day-of-injury • Group-4: Delayed (14-days): post-injury Clinical quantitative devices were used to objectively monitor cutaneous healing at weekly intervals and punch biopsies were performed on day 0 (uninjured skin) and at weeks 4 and 8 for protein and gene expression analyses. In the trial, topical EGCG and a placebo topical were applied twice daily for the duration of the trial until week 8 with only the starting time points differing between groups. […]

human skin models = settings: ex vivo human skin models; cited from earlier work

Q: With `O=C(OC1Cc2c(O)cc(O)cc2OC1c1cc(O)c(O)c(O)c1)c1cc(O)c(O)c(O)c1` (single isomer, unassigned; (-)) [EGCG, (-)-epigallocatechin-3-gallate] as the molecule, how does the “QRT-PCR MCC expression, EGCG-treated samples” value (MCT and MCC) read?
A: down-regulation

Q: And the “QRT-PCR MCT expression, EGCG-treated samples” value (MCT and MCC)?
A: down-regulation

Q: What about the “langerin reduction in EGCG-treated samples compared to placebo” value (langerin) of the same molecule?
A: 13%

Q: And the “Elasticity (viscoelasticity), EGCG-treated arms compared to placebo-treated arms” value ([1]; group-1 weeks 1, 7, 8, group-2 week 8, group-3 week 8, group-4 week 7)?
A: significantly increased

Q: And the “Elasticity, between group comparison, group-1 vs group-4” value ([1]; week 8, p=0.029)?
A: significantly increased elastin more than group-4

Q: And the “Effect on scar growth” value (human skin models)?
A: inhibited growth and induced scar shrinkage

Q: What about the “Mast cell (MC) numbers” value (human skin models) of the same molecule?
A: significantly reduced mast cell (MC) numbers
